# Test results from the supplement of paper PMC10307832.
# What was measured:
# Assay in all cases: relative viability (nuclei count vs DMSO), 5 days (fraction); higher = more cells survive
# [1] = compound: NC(=O)c1ccc(N(C(N)=O)c2c(F)cccc2F)nc1-c1ccc(F)cc1F [VX-702] + CC1(C)CCC(c2ccc(Cl)cc2)=C(CN2CCN(c3ccc(C(=O)NS(=O)(=O)c4ccc(N[C@H](CCN5CCOCC5)CSc5ccccc5)c(S(=O)(=O)C(F)(F)F)c4)cc3)CC2)C1 [Navitoclax] (partner 0.5 µM)
# Outline: (§1)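 Each reported value is a median over duplicate plates. It expresses relative viability: treated-well nuclei count divided by vehicle-well nuclei count. Lung cancer cell lines in 1536-well plates were dosed by pin tool a day after seeding, alone with one drug or with a fixed anchor-drug dose plus five library-drug doses (not always all listed) in √10 steps, and nuclei were counted after 5 days.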
# [2] = compound: NC(=O)c1ccc(N(C(N)=O)c2c(F)cccc2F)nc1-c1ccc(F)cc1F [VX-702] + C[C@]1(O)C[C@@H](c2nc(-c3ccc4ccc(-c5ccccc5)nc4c3)c3c(N)nccn32)C1 [Linsitinib] (partner 1 µM)
# Outline: as §1
# [3] = compound: NC(=O)c1ccc(N(C(N)=O)c2c(F)cccc2F)nc1-c1ccc(F)cc1F [VX-702] + CC(=O)c1c(C)c2cnc(Nc3ccc(N4CCNCC4)cn3)nc2n(C2CCCC2)c1=O [Palbociclib] (partner 0.5 µM)
# Outline: as §1
# [4] = compound: CC(C)(C)c1nc(-c2cccc(NS(=O)(=O)c3c(F)cccc3F)c2F)c(-c2ccnc(N)n2)s1 [Dabrafenib] + Cc1cc(Nc2cc(N3CCN(C)CC3)nc(Sc3ccc(NC(=O)C4CC4)cc3)n2)n[nH]1 [Tozasertib] (partner 0.1 µM)
# Outline: as §1
Cell Line,relative viability ([1]; first compound 0.02 µM),relative viability ([1]; first compound 0.2 µM),relative viability ([1]; first compound 0.6325 µM),relative viability ([1]; first compound 2 µM),relative viability ([2]; first compound 0.02 µM),relative viability ([2]; first compound 0.2 µM),relative viability ([2]; first compound 0.6325 µM),relative viability ([2]; first compound 2 µM),relative viability ([3]; first compound 0.02 µM),relative viability ([3]; first compound 0.2 µM),relative viability ([3]; first compound 0.6325 µM),relative viability ([3]; first compound 2 µM),relative viability ([4]; first compound 0.003 µM),relative viability ([4]; first compound 0.009487 µM),relative viability ([4]; first compound 0.03 µM),relative viability ([4]; first compound 0.09487 µM),relative viability ([4]; first compound 0.3 µM)
EPLC-272H,1.23,1.08,1.05,1.17,1,1.1,1.13,1.28,0.312,0.343,0.316,0.311,0.345,0.326,0.33,0.273,0.256
SW 1573,0.938,0.809,0.831,0.909,0.918,0.737,0.647,0.659,0.422,0.395,0.32,0.318,0.284,0.233,0.191,0.19,0.241
NCI-H1793,0.601,0.405,0.497,0.542,0.815,0.73,0.687,0.974,0.294,–,0.314,0.269,–,0.464,–,–,0.293
LXF-289,1,0.957,0.935,0.961,0.941,0.961,0.931,0.96,0.616,0.563,0.59,0.616,0.192,0.178,0.116,0.203,0.187
NCI-H2023,1.02,1.01,0.89,1.03,0.568,0.561,0.629,0.612,0.381,0.347,0.404,0.436,0.376,0.382,0.35,0.321,0.356
HARA,1.08,1.14,1.05,1.09,1.02,0.877,0.927,0.797,0.278,0.227,0.226,0.254,0.101,0.116,–,0.115,0.113
SK-LU-1,0.7,0.757,0.66,1.32,1.06,1.03,1.08,1.22,0.38,0.355,0.382,0.395,–,0.365,0.255,0.311,0.332
LCLC-97TM1,0.379,0.458,0.344,0.489,0.131,0.189,0.172,0.207,0.192,0.23,0.195,0.3,0.218,0.209,0.287,0.249,0.186
